From patent US12595230B2, “Substituted 6,7-dihydro-5H-benzo[7]annulene compounds and their derivatives, processes for their preparation and therapeutic uses thereof” (Sanofi, priority 2020, dated 2026)

Target: T1, ERα (Homo sapiens, UniProt P03372)
T1 construct: host or cells: MCF7
T1 sequence (P03372 1-595): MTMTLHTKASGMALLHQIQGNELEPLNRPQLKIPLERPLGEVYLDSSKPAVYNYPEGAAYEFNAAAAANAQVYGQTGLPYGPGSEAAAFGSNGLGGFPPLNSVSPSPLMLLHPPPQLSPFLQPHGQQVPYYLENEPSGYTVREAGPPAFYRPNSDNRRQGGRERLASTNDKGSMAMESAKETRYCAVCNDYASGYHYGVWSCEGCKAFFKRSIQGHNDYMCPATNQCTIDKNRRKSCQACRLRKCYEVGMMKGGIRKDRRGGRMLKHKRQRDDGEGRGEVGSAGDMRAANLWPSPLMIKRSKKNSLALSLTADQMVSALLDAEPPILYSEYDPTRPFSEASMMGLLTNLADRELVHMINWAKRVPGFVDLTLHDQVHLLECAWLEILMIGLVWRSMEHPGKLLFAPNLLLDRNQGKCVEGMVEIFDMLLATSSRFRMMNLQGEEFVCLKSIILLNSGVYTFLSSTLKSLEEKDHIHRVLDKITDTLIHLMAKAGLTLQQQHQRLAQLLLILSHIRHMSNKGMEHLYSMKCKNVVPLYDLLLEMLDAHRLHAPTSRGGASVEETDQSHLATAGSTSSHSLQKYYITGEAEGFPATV
Assay: Estrogen receptor degradation activity: breast cancer cell ERα in cell western assay (MCF7 cells)
Type: cell-based
Conditions: for % Degradation At 0.3 μM: 4 hours, relative to fulvestrant 0.1 μM positive control; for DC50 / IC50: 4 hours post compound addition, concentration which degrades 50% of the estrogen receptor; for DC50: read-out: Degradation IC50
Outline: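 Compounds were applied to MCF7 cells in stripped-serum, phenol red-free medium for 4 h at final 0.3–0.0000018 μM, with fulvestrant (0.1 μM) as control. Value: IC50 (nM) for 50% ERα degradation.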

SMILES	% Degradation At 0.3 μM	DC50	IC50
Cl.O=C(O)c1ccc2c(c1)CCCC(c1cccc3c1CCC3(F)F)=C2c1ccc(CC2CN(CCCF)C2)cc1 [Example 54, 8-(1,1-difluoro-2,3-dihydro-1H-inden-4-yl)-9-(4-((1-(3-fluoropropyl)azetidin-3-yl)methyl)phenyl)-6,7-dihydro-5H-benzo[7]annulene-3-carboxylic acid hydrochloride]	94%	0.6 nM	
Cl.O=C(O)c1ccc2c(c1)CCCC(c1ccc(F)c3c1CCC3)=C2c1ccc(CC2CN(CCCF)C2)cc1 [Example 55, 8-(7-fluoro-2,3-dihydro-1H-inden-4-yl)-9-(4-((1-(3-fluoropropyl)azetidin-3-yl)methyl)phenyl)-6,7-dihydro-5H-benzo[7]annulene-3-carboxylic acid hydrochloride]	93%	0.5 nM	
O=C(O)c1cc2c(cc1F)C(c1ccc(CC3CN(CCCF)C3)cc1)=C(c1ccc(Cl)cc1Cl)CCC2 [Example 206, 8-(2,4-dichlorophenyl)-2-fluoro-9-(4-((1-(3-fluoropropyl)azetidin-3-yl)methyl)phenyl)-6,7-dihydro-5H-benzo[7]annulene-3-carboxylic acid]	86%	0.4 nM	
Cl.O=C(O)c1ccc2c(c1)CCCC(c1ccc(Cl)c(Cl)c1)=C2c1ccc(CC2CN(CCCF)C2)cc1 [Example 207, 8-(3,4-dichlorophenyl)-9-(4-((1-(3-fluoropropyl)azetidin-3-yl)methyl)phenyl)-6,7-dihydro-5H-benzo[7]annulene-3-carboxylic acid hydrochloride]	92%	1.1 nM	
Cl.[2H]C([2H])(CCF)N1CC(Cc2ccc(C3=C(c4ccc(Cl)cc4Cl)CCCc4cc(C(=O)O)ccc43)cc2)C1 [Example 208, 8-(2,4-dichlorophenyl)-9-(4-((1-(3-fluoropropyl-1,1-d2)azetidin-3-yl)methyl)phenyl)-6,7-dihydro-5H-benzo[7]annulene-3-carboxylic acid hydrochloride]	95%	0.2 nM	
Cc1cc(C2=C(c3ccc(CC4CN(CCCF)C4)cc3)c3ccc(C(=O)O)cc3CCC2)cn(C)c1=O [Example 209, 8-(1,5-dimethyl-6-oxo-1,6-dihydropyridin-3-yl)-9-(4-((1-(3-fluoropropyl)azetidin-3-yl)methyl)phenyl)-6,7-dihydro-5H-benzo[7]annulene-3-carboxylic acid]	100%	88.7 nM	
Cc1ccc(C2=C(c3ccc(CC4CN(CCCF)C4)cc3)c3ccc(C(=O)O)cc3CCC2)c(F)c1F.Cl [Example 210, 8-(2,3-difluoro-4-methylphenyl)-9-(4-((1-(3-fluoropropyl)azetidin-3-yl)methyl)phenyl)-6,7-dihydro-5H-benzo[7]annulene-3-carboxylic acid hydrochloride]	88%	0.3 nM	
Cl.O=C(O)c1ccc2c(c1)CCCC(c1ccc(Cl)c(F)c1Cl)=C2c1ccc(CC2CN(CCCF)C2)cc1 [Example 211, 8-(2,4-dichloro-3-fluorophenyl)-9-(4-((1-(3-fluoropropyl)azetidin-3-yl)methyl)phenyl)-6,7-dihydro-5H-benzo[7]annulene-3-carboxylic acid hydrochloride]	96%		0.1 nM
Cc1c(Cl)cccc1C1=C(c2ccc(CC3CN(CCCF)C3)cc2)c2ccc(C(=O)O)cc2CCC1.Cl [Example 212, 8-(3-chloro-2-methylphenyl)-9-(4-((1-(3-fluoropropyl)azetidin-3-yl)methyl)phenyl)-6,7-dihydro-5H-benzo[7]annulene-3-carboxylic acid hydrochloride]	87%		0.1 nM
Cc1ccc(C2=C(c3ccc(CC4CN(CCCF)C4)cc3)c3ccc(C(=O)O)cc3CCC2)c(C(F)(F)F)c1.Cl [Example 213, 9-(4-((1-(3-fluoropropyl)azetidin-3-yl)methyl)phenyl)-8-(4-methyl-2-(trifluoromethyl)phenyl)-6,7-dihydro-5H-benzo[7]annulene-3-carboxylic acid hydrochloride]	94%	0.2 nM	
O=C(O)c1ccc2c(c1)CCCC(c1cnccc1C(F)(F)F)=C2c1ccc(CC2CN(CCCF)C2)cc1 [Example 214, 9-(4-((1-(3-fluoropropyl)azetidin-3-yl)methyl)phenyl)-8-(4-(trifluoromethyl)pyridin-3-yl)-6,7-dihydro-5H-benzo[7]annulene-3-carboxylic acid]	86%	2.8 nM	
Cl.O=C(O)c1ccc2c(c1)CCCC(c1ccc(Cl)cc1Cl)=C2c1ccc(C2(C3CN(CCCF)C3)CC2)cc1 [Example 215, 8-(2,4-dichlorophenyl)-9-(4-(1-(1-(3-fluoropropyl)azetidin-3-yl)cyclopropyl)phenyl)-6,7-dihydro-5H-benzo[7]annulene-3-carboxylic acid hydrochloride]	67%	0.3 nM	
O=C(O)c1c(F)cc2c(c1F)CCCC(c1ccc(F)cc1Cl)=C2c1ccc(CC2CN(CCCF)C2)cc1 [Example 216, 8-(2-chloro-4-fluorophenyl)-2,4-difluoro-9-(4-((1-(3-fluoropropyl)azetidin-3-yl)methyl)phenyl)-6,7-dihydro-5H-benzo[7]annulene-3-carboxylic acid]	83%	13.2 nM	
Cc1ccc(C2=C(c3ccc(CC4CN(CCCF)C4)cc3)c3cc(F)c(C(=O)O)c(F)c3CCC2)c(Cl)c1 [Example 217, 8-(2-chloro-4-methylphenyl)-2,4-difluoro-9-(4-((1-(3-fluoropropyl)azetidin-3-yl)methyl)phenyl)-6,7-dihydro-5H-benzo[7]annulene-3-carboxylic acid]	86%	6.2 nM	
O=C(O)c1ccc2c(c1)CCCC(c1ncc(Cl)cc1C(F)(F)F)=C2c1ccc(CC2CN(CCCF)C2)cc1 [Example 218, 8-(5-chloro-3-(trifluoromethyl)pyridin-2-yl)-9-(4-((1-(3-fluoropropyl)azetidin-3-yl)methyl)phenyl)-6,7-dihydro-5H-benzo[7]annulene-3-carboxylic acid]	92%	0.5 nM	
O=C(O)c1ccc2c(c1)CCCC(c1ncc(Cl)cc1F)=C2c1ccc(CC2CN(CCCF)C2)cc1 [Example 219, 8-(5-chloro-3-fluoropyridin-2-yl)-9-(4-((1-(3-fluoropropyl)azetidin-3-yl)methyl)phenyl)-6,7-dihydro-5H-benzo[7]annulene-3-carboxylic acid]	92%	6.5 nM	
O=C(O)c1ccc2c(c1)CCCC(c1c(F)cccc1Cl)=C2c1ccc(CC2CN(CCCF)C2)cc1 [Example 220, 8-(2-chloro-6-fluorophenyl)-9-(4-((1-(3-fluoropropyl)azetidin-3-yl)methyl)phenyl)-6,7-dihydro-5H-benzo[7]annulene-3-carboxylic acid]	87%	0.3 nM	
O=C(O)c1ccc2c(c1)CCCC(c1ccc(Cl)cc1C(F)F)=C2c1ccc(CC2CN(CCCF)C2)cc1 [Example 221, 8-(4-chloro-2-(difluoromethyl)phenyl)-9-(4-((1-(3-fluoropropyl)azetidin-3-yl)methyl)phenyl)-6,7-dihydro-5H-benzo[7]annulene-3-carboxylic acid]	91%	0.2 nM	
O=C(O)c1ccc2c(c1)CCCC(c1ccc(Cl)cc1Cl)=C2c1ccc(CC2CN(CCC(F)F)C2)cc1 [Example 223, 8-(2,4-dichlorophenyl)-9-(4-((1-(3,3-difluoropropyl)azetidin-3-yl)methyl)phenyl)-6,7-dihydro-5H-benzo[7]annulene-3-carboxylic acid]	92%	0.2 nM	
O=C(O)c1c(F)cc2c(c1F)CCCC(c1ccccc1Cl)=C2c1ccc(CC2CN(CCCF)C2)cc1 [Example 224]	82%	43 nM	
O=C(O)c1c(F)cc2c(c1F)CCCC(c1ccc(Cl)cc1Cl)=C2c1ccc(CC2CN(CCCF)C2)cc1 [Example 225, 8-(2,4-dichlorophenyl)-2,4-difluoro-9-(4-((1-(3-fluoropropyl)azetidin-3-yl)methyl)phenyl)-6,7-dihydro-5H-benzo[7]annulene-3-carboxylic acid]	82%	6.6 nM	
O=C(O)c1ccc2c(c1)CCCC(c1cccc(Cl)c1C(F)(F)F)=C2c1ccc(CC2CN(CCCF)C2)cc1 [Example 226, 8-(3-chloro-2-(trifluoromethyl)phenyl)-9-(4-((1-(3-fluoropropyl)azetidin-3-yl)methyl)phenyl)-6,7-dihydro-5H-benzo[7]annulene-3-carboxylic acid]	90%		0.1 nM
CCC(CC)CC1=C(c2ccc(CC3CN(CCCF)C3)cc2)c2ccc(C(=O)O)cc2CCC1 [Example 231, 8-(2-Ethylbutyl)-9-(4-((1-(3-fluoropropyl)azetidin-3-yl)methyl)phenyl)-6,7-dihydro-5H-benzo[7]annulene-3-carboxylic Acid]	83%	0.3 nM	
